From PubChem BioAssay AID264 (DTP/NCI, 2004)
Inconclusive results are not listed.

Test system: nude mice, LX-1 lung xenograft intrarenal, tumor weight T/C
Assay: NCI In Vivo Anticancer Drug Screen. Data for tumor model Human Lung LX-1 Xenograft (intrarenal inoculation) in NU/NU Swiss (nude) mice
Details: endpoint: mean tumor weight change, higher = larger tumour
Method in brief: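 Compound-treated mice carrying transplanted tumors were compared with vehicle-treated controls. Tumor size was the measured end point, and the value is the treated-group measurement divided by the control-group measurement (T/C).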

[1] = dose: 25.0 mg/kg/injection, schedule: Q01DX010 (sc), vehicle: Klucel (hydroxypropylcellulose) (HPC)
[2] = dose: 50.0 mg/kg/injection, schedule: Q01DX010 (sc), vehicle: Klucel (hydroxypropylcellulose) (HPC)
[3] = dose: 100.0 mg/kg/injection, schedule: Q01DX010 (sc), vehicle: Klucel (hydroxypropylcellulose) (HPC)
[4] = dose: 200.0 mg/kg/injection, schedule: Q01DX010 (sc), vehicle: Klucel (hydroxypropylcellulose) (HPC)
[5] = dose: 300.0 mg/kg/injection, schedule: Q04DX003 (sc), vehicle: saline with Tween-80
[6] = dose: 600.0 mg/kg/injection, schedule: Q04DX003 (sc), vehicle: saline with Tween-80
[7] = dose: 1200.0 mg/kg/injection, schedule: Q04DX003 (sc), vehicle: saline with Tween-80
[8] = dose: 300.0 mg/kg/injection, schedule: Q04DX003 (sc), vehicle: Klucel (hydroxypropylcellulose) (HPC)
[9] = dose: 25.0 mg/kg/injection, schedule: Q04DX003 (sc), vehicle: Klucel (hydroxypropylcellulose) (HPC)
[10] = dose: 50.0 mg/kg/injection, schedule: Q04DX003 (sc), vehicle: Klucel (hydroxypropylcellulose) (HPC)
[11] = dose: 100.0 mg/kg/injection, schedule: Q04DX003 (sc), vehicle: Klucel (hydroxypropylcellulose) (HPC)

SMILES: COc1ccc(/C=C/C(=O)c2cc(C(=O)O)c(OC)cc2OC)cc1OC
- T/C (dose: 300.0 mg/kg/injection, schedule: Q04DX003 (sc), vehicle: suspension in saline): 100 % of control
- T/C (dose: 600.0 mg/kg/injection, schedule: Q04DX003 (sc), vehicle: suspension in saline): 56 % of control
- T/C (dose: 1200.0 mg/kg/injection, schedule: Q04DX003 (sc), vehicle: suspension in saline): 73 % of control
- T/C (dose: 2400.0 mg/kg/injection, schedule: Q04DX003 (sc), vehicle: suspension in saline): 66 % of control

SMILES: CC(C)NCC(O)COc1ccc(O)c(O)c1 (stereo not given)
- T/C (dose: 100.0 mg/kg/injection, schedule: Q04DX003 (sc), vehicle: saline): 104 % of control
- T/C (dose: 200.0 mg/kg/injection, schedule: Q04DX003 (sc), vehicle: saline): 84 % of control
- T/C (dose: 400.0 mg/kg/injection, schedule: Q04DX003 (sc), vehicle: saline): 114 % of control
- T/C (dose: 800.0 mg/kg/injection, schedule: Q04DX003 (sc), vehicle: saline): 54 % of control

SMILES: COc1ccc(-c2csc(=[N+]3CCCCC3)s2)cc1
- T/C (dose: 1.56 mg/kg/injection, schedule: Q04DX003 (sc), vehicle: water): 91 % of control
- T/C (dose: 3.12 mg/kg/injection, schedule: Q04DX003 (sc), vehicle: water): 84 % of control
- T/C (dose: 6.25 mg/kg/injection, schedule: Q04DX003 (sc), vehicle: water): 72 % of control
- T/C (dose: 12.5 mg/kg/injection, schedule: Q04DX003 (sc), vehicle: water): 80 % of control

SMILES: COC(=O)Nc1cccc(-c2nc3ccc(NC(=O)OC)cc3c(=O)n2-c2ccccc2)c1
- T/C [1]: 99 % of control
- T/C [2]: 160 % of control
- T/C [3]: 93 % of control
- T/C [4]: 84 % of control

SMILES: CCc1nc(N)nc(N)c1-c1ccc(Cl)c([N+](=O)[O-])c1
- T/C (dose: 9.38 mg/kg/injection, schedule: Q04DX003 (sc), vehicle: saline with Tween-80): 99 % of control
- T/C (dose: 18.75 mg/kg/injection, schedule: Q04DX003 (sc), vehicle: saline with Tween-80): 108 % of control
- T/C (dose: 37.5 mg/kg/injection, schedule: Q04DX003 (sc), vehicle: saline with Tween-80): 99 % of control
- T/C (dose: 75.0 mg/kg/injection, schedule: Q04DX003 (sc), vehicle: saline with Tween-80): 119 % of control

SMILES: O=[N+]([O-])c1ccc(Sc2ccncn2)c([N+](=O)[O-])c1
- T/C [5]: 104 % of control
- T/C [6]: 105 % of control
- T/C [7]: 98 % of control

SMILES: COc1cc2c(c(OC)c1OC)-c1ccc(OC)c(=O)cc1[C@@H](N)CC2
- T/C (dose: 0.31 mg/kg/injection, schedule: Q01DX010 (sc), vehicle: Klucel (hydroxypropylcellulose) (HPC)): 104 % of control
- T/C (dose: 0.63 mg/kg/injection, schedule: Q01DX010 (sc), vehicle: Klucel (hydroxypropylcellulose) (HPC)): 74 % of control
- T/C (dose: 1.25 mg/kg/injection, schedule: Q01DX010 (sc), vehicle: Klucel (hydroxypropylcellulose) (HPC)): 76 % of control
- T/C (dose: 1.57 mg/kg/injection, schedule: Q01DX010 (sc), vehicle: Klucel (hydroxypropylcellulose) (HPC)): 79 % of control
- T/C (dose: 2.5 mg/kg/injection, schedule: Q01DX010 (sc), vehicle: Klucel (hydroxypropylcellulose) (HPC)): 50 % of control
- T/C (dose: 3.13 mg/kg/injection, schedule: Q01DX010 (sc), vehicle: Klucel (hydroxypropylcellulose) (HPC)): 61 % of control
- T/C (dose: 6.25 mg/kg/injection, schedule: Q01DX010 (sc), vehicle: Klucel (hydroxypropylcellulose) (HPC)): 66 % of control

SMILES: C[CH2][Sn]([CH2]C)([O]S(C)(=O)=O)[O]S(C)(=O)=O
- T/C (dose: 3.13 mg/kg/injection, schedule: Q04DX003 (sc), vehicle: saline with Tween-80): 107 % of control
- T/C (dose: 6.25 mg/kg/injection, schedule: Q04DX003 (sc), vehicle: saline with Tween-80): 109 % of control
- T/C (dose: 12.5 mg/kg/injection, schedule: Q04DX003 (sc), vehicle: saline with Tween-80): 102 % of control
- T/C (dose: 25.0 mg/kg/injection, schedule: Q04DX003 (sc), vehicle: saline with Tween-80): 99 % of control

SMILES: NC(=O)c1cn(C2OC(CO)C(O)C2O)c2ncnc(N)c12 (stereo not given)
- T/C (dose: 0.5 mg/kg/injection, schedule: Q01DX010 (sc), vehicle: saline): 74 % of control
- T/C (dose: 1.0 mg/kg/injection, schedule: Q01DX010 (sc), vehicle: saline): 88 % of control
- T/C (dose: 2.0 mg/kg/injection, schedule: Q01DX010 (sc), vehicle: saline): 27 % of control

SMILES: CC1(C)CC(=O)C(CSC(=O)c2ccccc2)C(=O)C1
- T/C (dose: 150.0 mg/kg/injection, schedule: Q04DX003 (sc), vehicle: Klucel (hydroxypropylcellulose) (HPC)): 102 % of control
- T/C [8]: 119 % of control

SMILES: CCCC(=O)OCc1cc(=O)n(C)c2c3c4c(cc12)c(C)cc(=O)n4CO3
- T/C [1]: 89 % of control
- T/C [2]: 70 % of control
- T/C [3]: 48 % of control
- T/C [4]: 63 % of control

SMILES: O=c1c(O)c(-c2cc(O)c(O)c(O)c2)oc2cc(O)cc(O)c12
- T/C (dose: 6.0 mg/kg/injection, schedule: Q04DX003 (sc), vehicle: saline with Tween-80): 93 % of control
- T/C (dose: 12.0 mg/kg/injection, schedule: Q04DX003 (sc), vehicle: saline with Tween-80): 99 % of control
- T/C (dose: 24.0 mg/kg/injection, schedule: Q04DX003 (sc), vehicle: saline with Tween-80): 92 % of control
- T/C (dose: 48.0 mg/kg/injection, schedule: Q04DX003 (sc), vehicle: saline with Tween-80): 96 % of control
- T/C (dose: 50.0 mg/kg/injection, schedule: Q04DX003 (sc), vehicle: saline with Tween-80): 100 % of control
- T/C (dose: 100.0 mg/kg/injection, schedule: Q04DX003 (sc), vehicle: saline with Tween-80): 83 % of control
- T/C (dose: 200.0 mg/kg/injection, schedule: Q04DX003 (sc), vehicle: saline with Tween-80): 69 % of control
- T/C (dose: 400.0 mg/kg/injection, schedule: Q04DX003 (sc), vehicle: saline with Tween-80): 94 % of control

SMILES: COC1=C(NC(C)=O)C(=O)c2nc(-c3nc(C(=O)O)c(C)c(-c4ccc(OC)c(OC)c4O)c3N)ccc2C1=O
- T/C [9]: 63 % of control
- T/C [10]: 55 % of control
- T/C [11]: 40 % of control

SMILES: [N-]=[N+]=CC(=O)CCC(=O)C=[N+]=[N-]
- T/C (dose: 1.5 mg/kg/injection, schedule: Q01DX010 (sc), vehicle: DMSO): 69 % of control
- T/C (dose: 3.0 mg/kg/injection, schedule: Q01DX010 (sc), vehicle: DMSO): 27 % of control

SMILES: CC1=CC(C)(C)Nc2ccc(CSc3ccccc3)cc21
- T/C (dose: 75.0 mg/kg/injection, schedule: Q01DX010 (sc), vehicle: saline + Tween-80 + alcohol): 105 % of control
- T/C (dose: 150.0 mg/kg/injection, schedule: Q01DX010 (sc), vehicle: saline + Tween-80 + alcohol): 105 % of control
- T/C (dose: 300.0 mg/kg/injection, schedule: Q01DX010 (sc), vehicle: saline + Tween-80 + alcohol): 85 % of control

SMILES: CCN(CC)CCNc1ccc(C)c2sc3ccc(O)cc3c(=O)c12
- T/C [5]: 71 % of control
- T/C [6]: 98 % of control
- T/C [7]: 83 % of control
- T/C (dose: 2400.0 mg/kg/injection, schedule: Q04DX003 (sc), vehicle: saline with Tween-80): 52 % of control

SMILES: C=C(C)[C@H]1CN[C@H](C(=O)O)[C@H]1CC(=O)O
- T/C (dose: 10.0 mg/kg/injection, schedule: Q04DX003 (sc), vehicle: saline): 164 % of control
- T/C (dose: 20.0 mg/kg/injection, schedule: Q04DX003 (sc), vehicle: saline): 97 % of control

SMILES: COC1C(O)CC(OC2CC(Oc3cc4cc5c(c(O)c4c(O)c3C)C(=O)[C@@H](OC3CC(OC4CC(OC6CC(C)(O)C(OC(C)=O)C(C)O6)C(O)C(C)O4)C(O)C(C)O3)[C@H]([C@H](OC)C(=O)[C@@H](O)[C@@H](C)O)C5)OC(C)C2OC(C)=O)OC1C (stereo not given in full)
- T/C (dose: 0.3 mg/kg/injection, schedule: Q04DX003 (sc), vehicle: Klucel (hydroxypropylcellulose) (HPC)): 87 % of control
- T/C (dose: 0.6 mg/kg/injection, schedule: Q04DX003 (sc), vehicle: Klucel (hydroxypropylcellulose) (HPC)): 68 % of control
- T/C (dose: 1.2 mg/kg/injection, schedule: Q04DX003 (sc), vehicle: Klucel (hydroxypropylcellulose) (HPC)): 36 % of control

SMILES: COc1ccc(Cl)[n+]([O-])n1
- T/C [9]: 83 % of control
- T/C [10]: 60 % of control
- T/C [11]: 80 % of control

SMILES: Oc1c(Cl)cc(C(c2cc(Cl)c(O)c(Cl)c2)C(c2cc(Cl)c(O)c(Cl)c2)c2cc(Cl)c(O)c(Cl)c2)cc1Cl
- T/C [8]: 88 % of control
- T/C (dose: 600.0 mg/kg/injection, schedule: Q04DX003 (sc), vehicle: Klucel (hydroxypropylcellulose) (HPC)): 66 % of control
- T/C (dose: 1200.0 mg/kg/injection, schedule: Q04DX003 (sc), vehicle: Klucel (hydroxypropylcellulose) (HPC)): 55 % of control
- T/C (dose: 2400.0 mg/kg/injection, schedule: Q04DX003 (sc), vehicle: Klucel (hydroxypropylcellulose) (HPC)): 66 % of control
